Consider 19 sequences from PMC5869189 (Frontiers in Immunology, 2018).

One experiment has as its system HLA-DRB1*04. Format: binding, human. Details: reference not given here. Conditions: 24–72 h at 37°C.
The target in a further experiment is T1, HLA-DRB1*11:01 (Homo sapiens, UniProt P01903+P01911, A100R/A169T/A87E/I96F/K41T/L162R/M171V/P40S/Q125H/Q178H/Q39Y/Q99D/R42S/S66Y/T262R/V115G/W38E).
T1 construct: Purified HLA-DR heterodimers derived from the relevant EBV B-lymphoblastoid cell lines; endogenous in cells
T1 sequence (P01903 26-254, other chains not shown): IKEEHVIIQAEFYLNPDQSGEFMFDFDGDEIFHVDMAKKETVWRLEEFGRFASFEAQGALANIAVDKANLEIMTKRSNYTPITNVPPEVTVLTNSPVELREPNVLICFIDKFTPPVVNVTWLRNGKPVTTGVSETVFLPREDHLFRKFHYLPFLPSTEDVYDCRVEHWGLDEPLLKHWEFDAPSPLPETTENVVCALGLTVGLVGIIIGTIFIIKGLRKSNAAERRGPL
The experiment is classed as binding. Also on record: reference not given here. The conditions noted are these: 24–72 h at 37°C.

The next experiment relates to HLA-DRB1*07. Format: binding, human. Also on record: reference not given here. The conditions noted are these: 24–72 h at 37°C.
Another experiment concerns the target T2, HLA-DRB1*15:01 (Homo sapiens, UniProt P01903+P01911).
T2 construct: Purified HLA-DR heterodimers derived from the relevant EBV B-lymphoblastoid cell lines; endogenous in cells
The experiment is classed as binding. Also on record: reference not given here. Conditions: 24–72 h at 37°C.

A further experiment has as its system HLA-DRB1*09. The experiment is classed as binding, human. Also on record: reference not given here. The conditions noted are these: 24–72 h at 37°C.
The subject of experiment [1] is PBMC from healthy, seropositive donors. The experiment is classed as cell-based, human.
Another experiment deals with HLA-DRB1*12:02 (Homo sapiens, UniProt P01903+P01911, A100R/A169T/D57E/D86V/F55L/H45Y/I96F/K41T/L162R/M171V/P40S/Q125H/Q178H/Q39Y/Q99D/R42G/S66L/T262R/V114A/V67L/W38E/Y59H/Y61H/Y89S). The experiment is classed as binding. Also on record: reference not given here. Conditions: 24–72 h at 37°C.
In the next experiment the target is T3, HLA-DRB1*15:02 (Homo sapiens, UniProt P01903+P01911, V115G).
T3 construct: Purified HLA-DR heterodimers derived from the relevant EBV B-lymphoblastoid cell lines; endogenous in cells
T3 sequence (P01903 26-254, other chains not shown): as above
Format: binding. Conditions: 24–72 h at 37°C. Details: reference not given here.

Experiment [2] relates to PBMC from melioidosis patients and control donors. Format: cell-based, human.
Experiment [3] deals with HLA class-II heterodimers (HLA DRB1*04, 07, 09, 11:01, 12:02, 15:01, 15:02). The experiment is classed as binding, human.
Experiment [4] relates to HLA-DQB1*0602 and HLA-DQB1*0302. The conditions noted are these: cited from earlier work.

Several values for one entry are separate records, joined by “and”; a condition that tells them apart may be missing. Identical values can stand only once. Where only a bound is given, the exact number is not on record here.

On to NQNPQITASVVGYTDSTGSA [BPSL0999_P14], for which the “HLA binding, relative HLA binding affinity” value in the experiment with HLA-DRB1*04 is 33; at HLA-DRB1*11:01, 189; in the experiment with HLA-DRB1*07 it was 30.2; on HLA-DRB1*15:01, 1; with HLA-DRB1*09, 37; on HLA-DRB1*12:02, more than 136. Also, at HLA-DRB1*15:02, the “HLA binding, relative HLA binding affinity” value was found to be 542. The “% Responders” value in [1] was 95.7% and 96%. Besides, the “Elispot, Median SFC/10^6 PBMCs of HLA donors” value (shortened to “Elispot, Median SFC/10^6 PBMCs”) in experiment [1] was 583 SFC/10^6 PBMCs and 417 SFC/10^6 PBMCs and 601 SFC/10^6 PBMCs and 460 SFC/10^6 PBMCs and 567 SFC/10^6 PBMCs and 588 SFC/10^6 PBMCs and 489 SFC/10^6 PBMCs. Further, the “Median SFC/10^6 PBMCs (IFN-g)” value in [1] is 373.

In the case of PAGKQKLDELAAKIQGMNVE [BPSL2522_P12], the “HLA binding, relative HLA binding affinity” value is recorded as more than 145 in the experiment on HLA-DRB1*04; 77 on HLA-DRB1*11:01; 333 in the experiment on HLA-DRB1*07; more than 270 at HLA-DRB1*15:01; more than 689 with HLA-DRB1*09; 40 on HLA-DRB1*12:02. For the same sequence, on HLA-DRB1*15:02, the “HLA binding, relative HLA binding affinity” value is given as >3 333. In addition, in experiment [1], the “% Responders” value was 97.1% and 97%. Besides, in experiment [1], the “Median SFC/10^6 PBMCs (IFN-g)” value was found to be 308.

With RGVAANRLSAQGMGASNPIA [BPSL0999_P18], the “HLA binding, relative HLA binding affinity” value in the experiment on HLA-DRB1*04 came to 82; at HLA-DRB1*11:01 it was 72; in the experiment on HLA-DRB1*07, 11; on HLA-DRB1*15:01 it was 157; in the experiment with HLA-DRB1*09 it was 367; on HLA-DRB1*12:02, 14. In addition, at HLA-DRB1*15:02, the “HLA binding, relative HLA binding affinity” value is listed as >3 333. Further, in [1], the “% Responders” value is 93.6% and 94%. Also, the “Elispot, Median SFC/10^6 PBMCs” value in experiment [1] is 617 SFC/10^6 PBMCs and 415 SFC/10^6 PBMCs and 456 SFC/10^6 PBMCs and 487 SFC/10^6 PBMCs and 634 SFC/10^6 PBMCs and 616 SFC/10^6 PBMCs and 441 SFC/10^6 PBMCs. In addition, the “Median SFC/10^6 PBMCs (IFN-g)” value in [1] came out at 375.

As to AAKIQGMNVEVVVATGYTDR [BPSL2522_P13], the “HLA binding, relative HLA binding affinity” value on HLA-DRB1*11:01 is given as 23; with HLA-DRB1*07, 11; at HLA-DRB1*15:01 it was 5; in the experiment on HLA-DRB1*09, 42; at HLA-DRB1*12:02 it was 5; at HLA-DRB1*15:02, 667. In experiment [1], the “% Responders” value was 100%. Further, the “Elispot, Median SFC/10^6 PBMCs” value in experiment [1] is 362 SFC/10^6 PBMCs and 488 SFC/10^6 PBMCs and 487 SFC/10^6 PBMCs and 578 SFC/10^6 PBMCs and 351 SFC/10^6 PBMCs and 534 SFC/10^6 PBMCs. In addition, in experiment [1], the “Median SFC/10^6 PBMCs (IFN-g)” value was 291.

Regarding VVVATGYTDRIGSDKYNDRL [BPSL2522_P14], the “HLA binding, relative HLA binding affinity” value was more than 145 with HLA-DRB1*04; more than 278 at HLA-DRB1*11:01; more than 336 with HLA-DRB1*07; 10 on HLA-DRB1*15:01; more than 689 in the experiment on HLA-DRB1*09; more than 136 at HLA-DRB1*12:02. For the same sequence, the “HLA binding, relative HLA binding affinity” value at HLA-DRB1*15:02 is on record as 1 826. Further, the “% Responders” value in [1] was 100%. For the same sequence, in experiment [1], the “Median SFC/10^6 PBMCs (IFN-g)” value was 290. Moreover, the “IFNγ response compared between cohorts (Figure 2)” value in experiment [2] is reported as “lower in recovered patients than in seropositive healthy donors”. Moreover, the “IFNγ response, acute septicemic melioidosis compared with recovered individuals (Figure 3)” value in [2] is “lower during acute disease”.

On to ATFIVDPDNTIQHVSVNNLN [BPSL2096_P14], for which, in experiment [1], the “% Responders” value is on record as 91.2% and the “Median SFC/10^6 PBMCs (IFN-g)” value amounted to 344.

For the sequence WWALRPVERRLSPRAALIAA [BPSS1599_P19], in experiment [1], the “% Responders” value was 95.8% and the “Median SFC/10^6 PBMCs (IFN-g)” value was determined as 169.

For the sequence KQTLAGSAMALRIVGDFPDL [BPSS0530_P43], in experiment [1], the “% Responders” value is given as 100.0% and the “Median SFC/10^6 PBMCs (IFN-g)” value stood at 299.

With CIGKIVGWVITAVSFAAAAF [BPSS1532_P35], in experiment [1], the “% Responders” value is 87.1% and the “Median SFC/10^6 PBMCs (IFN-g)” value was determined as 172.

On to PVAPVAPAITSQKITYQADT [BPSL2522_P9], for which, in experiment [1], the “% Responders” value came out at 88.6% and the “Median SFC/10^6 PBMCs (IFN-g)” value came to 353.

For KDFTFVCPTEIVEFAKLAKQ [BPSL2096_P6], the “HLA binding, relative HLA binding affinity” value came to 9 in the experiment with HLA-DRB1*04; 43 at HLA-DRB1*11:01; 0.3 in the experiment with HLA-DRB1*07; 7 on HLA-DRB1*15:01; 18 in the experiment with HLA-DRB1*09; 25 on HLA-DRB1*12:02. Also, the “HLA binding, relative HLA binding affinity” value at HLA-DRB1*15:02 was 222. For the same sequence, the “HLA class-II binding across the panel (in words)” value in experiment [3] is “moderate to high affinity”. In experiment [1], the “% Responders” value is 82.4% and 82%. Also, in experiment [1], the “Median SFC/10^6 PBMCs (IFN-g)” value is listed as 333. Besides, the “Presentation through HLA-DQ” value in experiment [4] was “can be presented also through HLA-DQB1*0602 and HLA-DQB1*0302”. Besides, the “IFNγ response, acute septicemic melioidosis compared with recovered individuals (Figure 3)” value in experiment [2] was “lower during acute disease”.

In the case of IRLRADTLMGAELAARPEYR [BPSS1525_P19], in experiment [1], the “% Responders” value is 82.1% and the “Median SFC/10^6 PBMCs (IFN-g)” value was found to be 197.

As to FDLMVLRIDRGVAAAGYANT [BPSS1599_P5], in experiment [1], the “% Responders” value came to 89.6% and the “Median SFC/10^6 PBMCs (IFN-g)” value is 129.

For SQKITYQADTLFDFDKAVLK [BPSL2522_P10], in [1], the “% Responders” value was found to be 91.4% and the “Median SFC/10^6 PBMCs (IFN-g)” value was 297.

LSPRAALIAATAACVVLGGA [BPSS1599_P20]: in [1], the “% Responders” value is listed as 97.9% and the “Median SFC/10^6 PBMCs (IFN-g)” value was determined as 150.

For NRRVEIYLRAPQAAQ [BPSL0999_P21], in experiment [1], the “% Responders” value is reported as 93.6% and the “Median SFC/10^6 PBMCs (IFN-g)” value stood at 348.

On to PEQGPRAPLANLAQQAAALP [BPSS1599_P37], for which, in experiment [1], the “% Responders” value came out at 93.8% and the “Median SFC/10^6 PBMCs (IFN-g)” value is 147.

For AHLVLRSLIDELQSTLRVRL [BPSS0530_P21], in experiment [1], the “% Responders” value worked out at 93.0% and the “Median SFC/10^6 PBMCs (IFN-g)” value came to 258.

In the case of EAEEREAALERVRAELAARQ [BPSS1599_P23], in experiment [1], the “% Responders” value worked out at 91.7% and the “Median SFC/10^6 PBMCs (IFN-g)” value is 147.
